Laboratory results: ChEMBL document CHEMBL5505985 (Eur J Med Chem, 2024)
Calls of active or inactive are those of the source. No cut-off for these calls is given here.

Key:
Mus musculus [1] = experiment: Antiinflammatory activity against DSS-induced ulcerative colitis BALB/c mouse assessed as amelioration of atrophied blood sinusoids at 0.25 mg/kg, po for 5 days and measured after 12 days; assay type: functional, organism-based; settings: time 12.0 day
Mus musculus [2] = experiment: Antiinflammatory activity against DSS-induced ulcerative colitis BALB/c mouse assessed as reduction in DAI score at 0.25 mg/kg, po for 5 days and measured after 12 days; assay type: functional, organism-based; settings: time 12.0 day
RAW264.7 [3] = experiment: Antiinflammatory activity in LPS-induced mouse RAW264.7 cells assessed as downregulation of IL-1 beta secretion preincubated for 1 hr followed by LPS stimulation and measured after 24 hrs by ELISA method; assay type: functional, cell-based; settings: dose 2-30 µM, time 25.0 hrs
Mus musculus [4] = experiment: Antiinflammatory activity against DSS-induced ulcerative colitis BALB/c mouse assessed as amelioration of goblet cell depletion at 0.25 mg/kg, po for 5 days and measured after 12 days; assay type: functional, organism-based; settings: time 12.0 day
RAW264.7 [5] = experiment: Antiinflammatory activity in LPS-induced mouse RAW264.7 cells assessed as inhibition of NO secretion preincubated for 1 hr followed by LPS stimulation and measured after 24 hrs by Griess assay; assay type: functional, cell-based; settings: dose 2-30 µM, time 25.0 hrs
RAW264.7 [6] = experiment: Inhibition of LPS-induced NFkappaB activation in mouse RAW264.7 cells assessed as reduction in NF-kappaB phosphorylation level preincubated for 1 hr followed by LPS stimulation and measured after 30 mins by Westernblot analysis; assay type: cell-based; settings: dose 10-30 µM, time 1.5 hrs
RAW264.7 [7] = experiment: Cytotoxicity activity mouse RAW264.7 cells assessed as reduction in cell viability at 10 uM incubated for 48 hrs by MTT assay; assay type: toxicity, cell-based; settings: raw264.7, 48 h
RAW264.7 [8] = experiment: Inhibition of LPS-induced NFkappaB activation in mouse RAW264.7 cells assessed as inhibition of IkappaBalpha phosphorylation level preincubated for 1 hr followed by LPS stimulation and measured after 30 mins by Westernblot analysis; assay type: cell-based; settings: dose 10-30 µM, time 1.5 hrs
[9] = target: NACHT, LRR and PYD domains-containing protein 3 (Mus musculus) (UniProt Q8R4B8); experiment: Inhibition of NLRP3 inflammasome in LPS-induced mouse RAW264.7 cells assessed as downregulation of caspase-1 activation primed with LPS for 4.5 hs followed by incubation with compound for 1 hr and later stimulation with ATP for 30 mins by Western blot analysis; assay type: cell-based; settings: dose 10-30 µM, time 1.5 hrs
[10] = target: NACHT, LRR and PYD domains-containing protein 3 (Mus musculus) (UniProt Q8R4B8); experiment: Inhibition of NLRP3 inflammasome in LPS-induced mouse RAW264.7 cells assessed as inhibition of ASC expression at 10 to 30 uM primed with LPS for 4.5 hs followed by incubation with compound for 1 hr and later stimulation with ATP for 30 mins by Western blot analysis; assay type: cell-based; settings: dose 10-30 µM, time 1.5 hrs
Mus musculus [11] = experiment: Antiinflammatory activity against DSS-induced ulcerative colitis BALB/c mouse assessed as amelioration of leucocyte infiltration at 0.25 mg/kg, po for 5 days and measured after 12 days; assay type: functional, organism-based; settings: time 12.0 day

NACHT, LRR and PYD domains-containing protein 3 (Mus musculus), sequence (Q8R4B8 whole entry, the tested form may be a part): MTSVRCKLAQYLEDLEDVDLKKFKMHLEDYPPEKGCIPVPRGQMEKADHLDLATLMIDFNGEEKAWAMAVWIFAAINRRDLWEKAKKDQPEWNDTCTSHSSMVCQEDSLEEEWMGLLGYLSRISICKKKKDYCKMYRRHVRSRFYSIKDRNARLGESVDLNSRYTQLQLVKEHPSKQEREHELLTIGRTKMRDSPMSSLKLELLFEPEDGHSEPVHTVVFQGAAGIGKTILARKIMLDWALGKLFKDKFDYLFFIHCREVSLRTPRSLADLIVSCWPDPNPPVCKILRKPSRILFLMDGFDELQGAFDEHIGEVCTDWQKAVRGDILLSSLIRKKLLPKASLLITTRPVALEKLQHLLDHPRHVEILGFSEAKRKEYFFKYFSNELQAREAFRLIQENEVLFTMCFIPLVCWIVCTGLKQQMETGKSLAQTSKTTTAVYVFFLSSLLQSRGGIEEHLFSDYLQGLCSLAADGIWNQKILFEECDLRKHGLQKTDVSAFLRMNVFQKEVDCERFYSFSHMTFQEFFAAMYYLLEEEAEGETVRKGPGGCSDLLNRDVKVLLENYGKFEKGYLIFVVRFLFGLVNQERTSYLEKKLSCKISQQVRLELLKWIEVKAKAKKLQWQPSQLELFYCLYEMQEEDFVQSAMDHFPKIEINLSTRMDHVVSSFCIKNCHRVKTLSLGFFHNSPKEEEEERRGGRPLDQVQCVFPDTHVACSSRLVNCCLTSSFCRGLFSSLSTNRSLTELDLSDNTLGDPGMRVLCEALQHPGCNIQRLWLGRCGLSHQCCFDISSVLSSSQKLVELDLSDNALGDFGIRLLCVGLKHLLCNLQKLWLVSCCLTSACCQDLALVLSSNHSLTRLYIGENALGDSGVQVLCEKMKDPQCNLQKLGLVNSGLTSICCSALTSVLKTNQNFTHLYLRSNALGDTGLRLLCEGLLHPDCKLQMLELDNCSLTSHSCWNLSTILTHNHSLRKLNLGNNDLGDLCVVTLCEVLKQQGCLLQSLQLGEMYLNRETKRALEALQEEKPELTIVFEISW

inhibition [9]: Dose-Dependent Effect
inhibition [10]: Active
Structure (SMILES): COc1ccccc1C1=Nn2c(Cc3ccccc3Nc3c(Cl)cccc3Cl)nnc2SC1
Activity (Mus musculus [1]): Active
Activity (Mus musculus [2]): Active
Activity (RAW264.7 [3]): Dose-Dependent Effect
Activity (Mus musculus [4]): Active
Activity (RAW264.7 [5]): Dose-Dependent Effect
inhibition (RAW264.7 [6]): Dose-Dependent Effect
Activity (RAW264.7 [7]): Non-Toxic
inhibition (RAW264.7 [8]): Dose-Dependent Effect
Activity (Mus musculus [11]): Active
